Tests used:
Format in all cases: in vivo
[1] = tested on: Puccinia recondita f. sp. tritici; assay: Test B: wheat leaf rust, preventive spray on wheat seedlings; conditions: 200 ppm, 100 = 100% disease control, 0 = no control relative to controls; for pest or weed control at 200 ppm: Puccinia recondita, 192 h, read-out: Test B disease control rating
How it was run: (§1)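 Spray suspensions: compound in acetone at 3% of final volume, diluted into acetone:water 1:1 containing 250 ppm polyhydric alcohol ester surfactant. Applied to run-off at 40 or 200 ppm; the higher level corresponds to 500 g/ha.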

[2] = tested on: Colletotrichum orbiculare; assay: Test I: cucumber Colletotrichum anthracnose, preventive spray on cucumber seedlings; conditions: 100 = 100% disease control, 0 = no control relative to controls; for pest or weed control at 200 ppm: Colletotrichum orbiculare, 144 h, read-out: Test I disease control rating
How it was run: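 Compound was dissolved in acetone (3% of final volume), then suspended in 50/50 acetone/water with 250 ppm Trem 014 surfactant. Cucumber seedlings were sprayed to run-off as a preventive treatment at 200 ppm (equivalent to 500 g/ha) or 40 ppm.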

Botrytis cinerea = assay: Test F: tomato Botrytis, preventive spray on tomato seedlings
How it was run: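 Compounds dissolved in acetone (3% of final volume), suspended in 50/50 acetone/water with 250 ppm Trem® 014. Sprayed preventively to run-off on tomato seedlings at 200 ppm (500 g/ha) or 40 ppm.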

Alternaria solani = assay: Test H: tomato early blight, preventive spray on seedlings; conditions: Alternaria solani, 168 h; 40 ppm (marked *); read-out: Test H disease control rating
How it was run: as §1

Fusarium graminearum = assay: whole plant or invertebrate; conditions: for pest or weed control at 200 ppm: Fusarium graminearum, in Triticum aestivum, 192 h, read-out: Test E disease control rating
Septoria nodorum = assay: Test C: wheat glume blotch, preventive spray on wheat seedlings; conditions: 200 ppm, 100 = 100% disease control, 0 = no control relative to controls; for pest or weed control at 200 ppm: Parastagonospora nodorum, 216 h, read-out: Test C disease control rating
How it was run: as §1

Septoria tritici = assay: Test D: wheat leaf blotch, preventive spray on wheat seedlings; conditions: 200 ppm, 100 = 100% disease control, 0 = no control relative to controls; for pest or weed control at 200 ppm: Zymoseptoria tritici, 504 h, read-out: Test D disease control rating
How it was run: as §1

Venturia inaequalis = assay: Test O: apple scab, preventive spray on apple seedlings; conditions: 100 ppm (100 g/ha, 1000 L/ha), inoculated the following day, 100 = 100% disease control, 0 = no control relative to controls
Text: (§2) General protocol for preparing test suspensions for Tests A-R: The test compounds were first dissolved in acetone in an amount equal to 3% of the final volume and then suspended at the desired concentration (in ppm) in acetone and purified water (50/50 mix) containing 250 ppm of the surfactant Trem® 014 (polyhydric alcohol esters). The resulting test suspensions were then used in tests A-R. In Tests A-M, compounds were sprayed as a 200 ppm test suspension (equivalent to a rate of 500 g/ha) or as a 40 ppm test suspension to the point of runoff on the test plants. In Tests N-R, compounds were sprayed as a 100 g/ha test suspension (equivalent to a rate of 100 ppm) on the test plants at an application volume of 1000 L/ha. The test suspension was sprayed on apple seedlings.

Plasmopara viticola [3] = assay: Test R: grape downy mildew, preventive spray on grape seedlings; conditions: 100 ppm (100 g/ha, 1000 L/ha), inoculated the following day, 100 = 100% disease control, 0 = no control relative to controls
Text: as §2, with “grape” for “apple”, “seedlings. The following day the seedlings were inoculated with a spore suspension of Plasmopara viticola (the causal agent of grape downy mildew) and incubated in a saturated atmosphere at 20° C. for 24 h, then moved to a growth chamber at 20° C. for 7 days, after which time the test units were placed back into a saturated atmosphere at 20° C. for 24 h. Upon removal, disease ratings were made.” for “seedlings.”

Rhizoctonia oryzae [4] = assay: Test P: rice sheath blight, preventive spray on rice seedlings; conditions: 100 ppm (100 g/ha, 1000 L/ha), inoculated the following day, 100 = 100% disease control, 0 = no control relative to controls
Text: as §2, with “rice” for “apple”

Uncinula necator = assay: Test N: grape powdery mildew, preventive spray on grape seedlings; conditions: 100 ppm (100 g/ha, 1000 L/ha), inoculated the following day, 100 = 100% disease control, 0 = no control relative to controls
Text: as §2, with “grape” for “apple”

Magnaporthe grisea = conditions: 100 ppm (100 g/ha, 1000 L/ha), rice seedlings, inoculated the following day; 100 = 100% disease control, 0 = no control relative to controls
[5] = tested on: Erysiphe graminis f. sp. tritici; assay: Test A: wheat powdery mildew, preventive spray on wheat seedlings
How it was run: as §1

Rhizoctonia oryzae [6] = assay: Test J: turf brown patch, preventive spray on creeping bent grass seedlings; conditions: 200 ppm; 100 = 100% disease control, 0 = no control relative to controls
Text: General protocol for preparing test suspensions for Tests A-R: The test compounds were first dissolved in acetone in an amount equal to 3% of the final volume and then suspended at the desired concentration (in ppm) in acetone and purified water (50/50 mix) containing 250 ppm of the surfactant Trem® 014 (polyhydric alcohol esters). The resulting test suspensions were then used in tests A-R. In Tests A-M, compounds were sprayed as a 200 ppm test suspension (equivalent to a rate of 500 g/ha) or as a 40 ppm test suspension to the point of runoff on the test plants. In Tests N-R, compounds were sprayed as a 100 g/ha test suspension (equivalent to a rate of 100 ppm) on the test plants at an application volume of 1000 L/ha. The test suspension was sprayed to the point of run-off on creeping bent grass seedlings.

Pythium aphanidermatum = assay: Test M: bluegrass pythium blight, preventive spray on bluegrass seedlings; conditions: 200 ppm; 100 = 100% disease control, 0 = no control relative to controls
Text: as §2, with “was sprayed to the point of run-off on bluegrass” for “was sprayed on apple”, “run-off on bluegrass seedlings.” for “sprayed on apple seedlings.”

Phytophthora infestans = conditions: 200 ppm; 100 = 100% disease control, 0 = no control relative to controls
Plasmopara viticola [7] = assay: Test L: grape downy mildew, spray after inoculation of grape seedlings; conditions: 200 ppm; 100 = 100% disease control, 0 = no control relative to controls
Text: General protocol for preparing test suspensions for Tests A-R: The test compounds were first dissolved in acetone in an amount equal to 3% of the final volume and then suspended at the desired concentration (in ppm) in acetone and purified water (50/50 mix) containing 250 ppm of the surfactant Trem® 014 (polyhydric alcohol esters). The resulting test suspensions were then used in tests A-R. In Tests A-M, compounds were sprayed as a 200 ppm test suspension (equivalent to a rate of 500 g/ha) or as a 40 ppm test suspension to the point of runoff on the test plants. In Tests N-R, compounds were sprayed as a 100 g/ha test suspension (equivalent to a rate of 100 ppm) on the test plants at an application volume of 1000 L/ha. Grape seedlings were inoculated with a spore suspension of Plasmopara viticola (the causal agent of grape downy mildew) and incubated in a saturated atmosphere at 20° C. for 24 h. After a short drying period, the test suspension was sprayed to the point of run-off on the grape seedlings and then moved to a growth chamber at 20° C. for 6 days, after which time the test units were placed back into a saturated atmosphere at 20° C. for 24 h. Upon removal, disease ratings were made.

Sclerotinia sclerotiorum = assay: Test G: cucumber white mold, preventive spray on cucumber seedlings; conditions: 200 ppm; 100 = 100% disease control, 0 = no control relative to controls
Text: as §2, with “was sprayed to the point of run-off on cucumber” for “was sprayed on apple”, “run-off on cucumber seedlings.” for “sprayed on apple seedlings.”

[8] = 200 ppm, 100 = 100% disease control, 0 = no control relative to controls

| SMILES | pest or weed control at 200 ppm [1] [%] | pest or weed control at 200 ppm [2] [%] | pest or weed control at 200 ppm (Fusarium graminearum) [%] | pest or weed control at 200 ppm (Septoria nodorum) [%] | pest or weed control at 200 ppm (Septoria tritici) [%] | Test J disease control rating (Rhizoctonia oryzae [6]) [%] | Test M disease control rating (Pythium aphanidermatum) [%] | Test K disease control rating (Phytophthora infestans) [%] | Test L disease control rating (Plasmopara viticola [7]) [%] | Test G disease control rating (Sclerotinia sclerotiorum) [%] | also measured |
| --- | --- | --- | --- | --- | --- | --- | --- | --- | --- | --- | --- |
| COC[C@H](C)Nc1nccc(-c2ncnc(Nc3cc(F)cc(F)c3)n2)n1 [Compound 22, N-(3,5-difluorophenyl)-4-[2-[[(1S)-2-methoxy-1-methylethyl]amino]-4-pyrimidinyl]-1,3,5-triazin-2-amine] | 99 | 100 | 99 | 100 | 36 |  |  |  |  |  | pest or weed control at 40 ppm (Botrytis cinerea; Botrytis cinerea, 120 h, 40 ppm (marked *), read-out: Test F disease control rating): 99%; pest or weed control at 40 ppm (Alternaria solani): 100%; Test O disease control rating (Venturia inaequalis): 99%; Test R disease control rating (Plasmopara viticola [3]): 83%; Test P disease control rating (Rhizoctonia oryzae [4]): 100%; Test N disease control rating (Uncinula necator): 99%; Test Q disease control rating (Magnaporthe grisea): 100%; pest or weed control at 40 ppm ([5]; Blumeria graminis, 192 h, 40 ppm (marked *), read-out: Test A disease control rating): 69% |
| COCC(C)Nc1nccc(-c2ccnc(Nc3cccc(Cl)c3)c2)n1 (stereo not shown) [Compound 40, 4-[2-[(3-chlorophenyl)amino]-4-pyridinyl]-N-(2-methoxy-1-methylethyl)-2-pyrimidinamine] | 90 | 84 | 48 | 99 | 27 | 0 | 0 | 0 | 0 | 83 | pest or weed control at 200 ppm (Botrytis cinerea; Botrytis cinerea, 120 h, 200 ppm, 100 = 100% disease control, 0 = no control relative to controls, read-out: Test F disease control rating): 99%; pest or weed control at 200 ppm ([5]; Blumeria graminis, 192 h, 200 ppm, 100 = 100% disease control, 0 = no control relative to controls, read-out: Test A disease control rating): 63% |
| COCC(C)Nc1nccc(-c2ccnc(Nc3cccc(F)c3)c2)n1 (stereo not shown) [Compound 41] |  |  |  |  |  | 34 | 0 | 0 | 0 | 94 | Test B disease control rating [1]: 98%; Test I disease control rating ([2]; 200 ppm): 54%; Test F disease control rating (Botrytis cinerea; [8]): 96%; Test E disease control rating (Fusarium graminearum; [8]): 45%; Test C disease control rating (Septoria nodorum): 99%; Test D disease control rating (Septoria tritici): 15%; Test A disease control rating [5, 8]: 57% |

Reference: patent US8026359B2, “Fungicidal heterocyclic amines” (E.I. du Pont de Nemours and Company, priority 2007, dated 2011)
